In article PMC12220852, “An adamantane‐based ligand as a novel chemical tool for thermosensory TRPM8 channel therapeutic modulation” (The Febs Journal, 2025):
“Also recorded” adds a separate entry of the source.

Key:
[1] = tested on: oxaliplatin‐induced peripheral cold allodynia in mice; experiment: Acetone drop test in oxaliplatin-induced cold allodynia; type: in vivo, mouse; settings: 30 and 90 min after administration, oxaliplatin-treated mice
Procedure: Given the inhibitory activity of compound 23 and the antinociceptive effects of TRPM8 antagonists described in models of oxaliplatin (OXP)‐induced neuropathy, we conducted a behavioral experiment in mice to assess the antinociceptive effects of compound 23 after repeated oxaliplatin administration. Oxaliplatin was intraperitoneally (i.p.) administered every other day for 5 days at 6 mg·kg^−1, reaching a total accumulative dose of 18 mg·kg^−1. […]
The systemic effect of compound 23 was assessed after intraperitoneal administration at 5 mg·kg^−1, dissolved in a solution of 2% Cremophor and 5% DMSO in saline, with a volume of 10 mL·kg^−1. […] Nociceptive sensitivity was evaluated for 30‐ and 90‐min postinjection using the acetone drop test (7 days after the first oxaliplatin dose) and the dry ice test (9 days after the last oxaliplatin dose).
The local effect of compound 23 or its vehicle was assessed 11 days after beginning the oxaliplatin treatment through subcutaneous intraplantar injection of 1 μg compound 23 or vehicle (2% Cremophor and 5% DMSO in saline) in the ventral side of the right hind paw, administered in a volume of 10 μL [66]. […] Nociceptive sensitivity was evaluated 30 and 90 min after the intraplantar injection with the acetone test. […]

[2] = tested on: AITC‐induced excitability in murine nociceptors; experiment: Multielectrode array (MEA): AITC-induced firing in nociceptors; type: cell-based; settings: 5 μM compound, 100 μM AITC, P2/P1
Procedure: Additionally, we investigated the effect of compound 23 on capsaicin and AITC‐induced excitability in murine nociceptors. Employing an IC50 value of 1 μM for TRPV1 and 5 μM for TRPA1 of firing inhibition by compound 23 (Fig. 4), we interrogated its ability to modulate neuronal excitability. As for TRPM8, our experimental design involved a protocol of dual agonist pulses interspersed with a washing pulse to minimize agonist‐induced channel desensitization. Compound 23 was administered 1 min prior to and during the second agonist pulse.
Primary cultures of neonatal dorsal root ganglia were used for multielectrode array (MEA) and patch‐clamp experiments following established methodologies previously described. Neonatal dorsal root ganglia (DRGs) were obtained from Wistar rats (3–5 days old) and were isolated and digested with 0.25% (w/v) collagenase (type IA) in DMEM GlutaMax with 1% (v/v) penicillin/streptomycin (P/S) solution for 1 h at 37 °C in a 5% CO2 Thermo Scientific incubator. Following digestion, DRGs were mechanically dissociated and passed through a 100 μm cell strainer to obtain single‐cell suspensions. Suspensions were washed with DMEM GlutaMax with 10% (v/v) fetal bovine serum (FBS) and 1% (v/v) penicillin/streptomycin (P/S). Cells were then seeded in microelectrode array chambers coated with poly‐L‐lysine (8.3 μg·mL^−1) and laminin (5 μg·mL^−1). […]

Structure (SMILES): O=C(COC(=O)c1ccccc1-c1ccccc1)NC12CC3CC(CC(C3)C1)C2 [Compound 23, 2‐((3S,5S,7S)‐adamantan‐1‐ylamino)‐2‐oxoethyl [1,1′‐biphenyl]‐2‐carboxylate]
- effect on response to acetone, local treatment ([1]; 1 μg subcutaneous intraplantar (i.pl.)): alleviated oxaliplatin‐induced cold sensitivity; also recorded: significant antinociceptive effect
- effect on licking response to acetone drops, systemic treatment ([1]; 5 mg·kg^−1 i.p., vs vehicle): no significant effect; also recorded: did not significantly affect
- attenuation of AITC‐induced firing [2]: 40%
